The record followed here is US20250296959A1, “B7-H3 TARGETING PEPTIDES AND CONSTRUCTS THEREOF” (Mariana Oncology Inc., priority 2024, published 2025).

Molecules are shown by their SMILES. Starred links: 1 amine or outer side, 2 acyl side, 3 side chain; linkers in the order of their positions; H or OH if unused. Positions of bridges follow the written chain, without caps; N, C: chain ends. Non-standard residues stand in square brackets, D forms with d. Residues, ends and D or L forms follow the SMILES beside them. Groups on a side chain read outwards from the residue. *: point of attachment. Ala(piperidin-4-yl) = O=C([C@H](CC1CCN([*:3])CC1)N[*:1])[*:2]; Phe(3-CH2NH2) = O=C([C@H](Cc1cccc(CN[*:3])c1)N[*:1])[*:2]; DOTA = O=C(O)CN1CCN(CC(=O)O)CCN(CC(=O)*)CCN(CC(=O)O)CC1; Phe(4-COOH) = N[C@@H](Cc1ccc(C(=O)O)cc1)C(=O)O; Trp(5-F) = N[C@@H](Cc1c[nH]c2ccc(F)cc12)C(=O)O; X1 = C[C@@H](c1ccccc1)[C@H](N[*:1])C(=O)[*:2]; 1Nal = N[C@@H](Cc1cccc2ccccc12)C(=O)O; 2Nal = N[C@@H](Cc1ccc2ccccc2c1)C(=O)O; Ala(4-THP) = N[C@@H](CC1CCOCC1)C(=O)O; hLeu(5-Me) = CC(C)(C)CC[C@H](N)C(=O)O; Phe(2-Me) = Cc1ccccc1C[C@H](N)C(=O)O; Val(3-OH) = CC(C)(O)[C@H](N)C(=O)O; PEG4 = NCCOCCOCCOCCOCCC(=O)O; Tle = CC(C)(C)[C@H](N)C(=O)O; hLeu = CC(C)CC[C@H](N)C(=O)O; Nle = CCCC[C@H](N)C(=O)O; Dab = NCC[C@H](N)C(=O)O; βAla = NCCC(=O)O; Sar = CNCC(=O)O

For this test, the target named is T1, human 4lg B7-H3 (Homo sapiens, UniProt Q5ZPR3).
T1 sequence (Q5ZPR3 29-534): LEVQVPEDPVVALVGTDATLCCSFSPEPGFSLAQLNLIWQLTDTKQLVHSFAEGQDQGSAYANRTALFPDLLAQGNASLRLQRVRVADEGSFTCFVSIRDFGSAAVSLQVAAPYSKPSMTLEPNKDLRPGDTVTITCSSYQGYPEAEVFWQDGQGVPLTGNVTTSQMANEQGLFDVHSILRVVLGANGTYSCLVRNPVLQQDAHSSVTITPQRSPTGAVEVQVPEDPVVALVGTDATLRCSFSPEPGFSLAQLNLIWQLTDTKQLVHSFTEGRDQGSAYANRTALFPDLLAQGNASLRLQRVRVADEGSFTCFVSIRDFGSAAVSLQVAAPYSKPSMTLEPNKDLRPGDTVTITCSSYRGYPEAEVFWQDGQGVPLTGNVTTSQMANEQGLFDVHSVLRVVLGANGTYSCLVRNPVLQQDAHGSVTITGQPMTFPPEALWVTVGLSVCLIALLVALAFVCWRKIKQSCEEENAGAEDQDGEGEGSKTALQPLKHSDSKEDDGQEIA
The test is described as follows: Affinity determination by surface plasmon resonance (SPR) to 4Ig B7-H3. The settings on record: 4Ig B7-H3. (Surface plasmon resonance follows binding to a sensor surface in real time, without labels.)

[1] abbreviates: SPR KD—25° C., 25° C. flow cell temperature.
[2] abbreviates: SPR KD—37° C., 37° C. flow cell temperature.

Usually Kd stands for the free concentration of one partner at which half of the binding sites on the other are occupied at equilibrium, for simple one-to-one binding. In the case of `CC(=O)N[C@@H](CCC(C)C)C(=O)N[C@@H](Cc1ccc(O)cc1)C(=O)N[C@H]1CSSC[C@@H](C(=O)N[C@@H](Cc2ccc3ccccc3c2)C(=O)N[C@@H](Cc2ccccc2)C(=O)N[C@H](C(=O)N[C@H](CCCCNC(=O)CN2CCN(CC(=O)O)CCN(CC(=O)O)CCN(CC(=O)O)CC2)C(=O)O)[C@@H](C)O)NC(=O)[C@H](Cc2ccc(O)cc2)NC(=O)[C@H](C(C)C)NC(=O)[C@H](CC(=O)O)NC(=O)[C@H](Cc2ccc(O)cc2)NC(=O)[C@H](CCCCN)NC(=O)CNC(=O)[C@H](C(C)C)NC1=O` [compound 159, Ac-hLeu-Y-C-V-G-K-Y-D-V-Y-C-2Nal-F-Thr-dLys(DOTA)-CONH2] (Ac-[hLeu]YCVGKYDVYC[2Nal]FT[dK](DOTA)-OH; disulfide 3-11), the Kd under setting [1] fell in the range of 10 to 100 nM.
Under setting [2], `CC(=O)N[C@@H](CCC(C)C)C(=O)N[C@@H](Cc1ccc(O)cc1)C(=O)N[C@H]1CSSC[C@@H](C(=O)N[C@@H](Cc2cccc3ccccc23)C(=O)N[C@H](C(=O)N[C@H](C(=O)N[C@H](CCCCNC(=O)CN2CCN(CC(=O)O)CCN(CC(=O)O)CCN(CC(=O)O)CC2)C(=O)O)C(C)(C)O)[C@@H](C)c2ccccc2)NC(=O)[C@H](Cc2ccc(O)cc2)NC(=O)[C@H](C(C)C)NC(=O)[C@H](CC(=O)O)NC(=O)[C@H](CC2CCOCC2)NC(=O)[C@H](CC2CCNCC2)NC(=O)CNC(=O)[C@H](C(C)(C)C)NC1=O` [compound 516, Ac-hLeu-Y-C-Tbg-G-PipAla-ThpA-D-V-Y-C-1Nal-[(2S, 3S)beta-Me-Phe]-hydroxyVal-dLys(DOTA)-COOH] (Ac-[hLeu]YC[Tle]G[Ala(piperidin-4-yl)][Ala(4-THP)]DVYC[1Nal][X1][Val(3-OH)][dK](DOTA)-OH; disulfide 3-11) returned a Kd below 1 nM.
Turning to `CC(=O)N[C@@H](CCC(C)C)C(=O)N[C@@H](Cc1ccc(O)cc1)C(=O)N[C@H]1CSSC[C@@H](C(=O)N[C@@H](Cc2c[nH]c3ccc(F)cc23)C(=O)N[C@@H](Cc2ccccc2C)C(=O)N[C@H](C(=O)N[C@H](CCCCNC(=O)CN2CCN(CC(=O)O)CCN(CC(=O)O)CCN(CC(=O)O)CC2)C(N)=O)[C@@H](C)O)NC(=O)[C@H](Cc2ccc(O)cc2)NC(=O)[C@H](C(C)C)NC(=O)[C@H](CC(=O)O)NC(=O)[C@H](Cc2ccc(O)cc2)NC(=O)[C@H](CCCCN)NC(=O)CNC(=O)[C@H](C(C)C)NC1=O` [compound 165, Ac-hLeu-Y-C-V-G-K-Y-D-V-Y-C-5FW-2MePhe-Thr-dLys(DOTA)-CONH2] (Ac-[hLeu]YCVGKYDVYC[Trp(5-F)][Phe(2-Me)]T[dK](DOTA)-NH2; disulfide 3-11), the dissociation constant Kd under setting [1] lay within 1 to 10 nM.
For the compound `CC(=O)N[C@@H](CCC(C)(C)C)C(=O)N[C@@H](Cc1ccc(O)cc1)C(=O)N[C@H]1CSSC[C@@H](C(=O)N[C@@H](Cc2c[nH]c3ccc(F)cc23)C(=O)N[C@@H](Cc2ccccc2)C(=O)N[C@H](C(=O)N[C@H](CCCCNC(=O)CN2CCN(CC(=O)O)CCN(CC(=O)O)CCN(CC(=O)O)CC2)C(=O)O)C(C)(C)O)NC(=O)[C@H](Cc2ccc(O)cc2)NC(=O)[C@H](C(C)C)NC(=O)[C@H](CC(=O)O)NC(=O)[C@H](CC2CCOCC2)NC(=O)[C@H](CCCCN)NC(=O)CNC(=O)[C@H](C(C)(C)C)NC1=O` [compound 397, Ac-hTba-Y-C-Tbg-G-K-ThpA-D-V-Y-C-5FW-F-hydroxyVal-dLys(DOTA)-COOH] (Ac-[hLeu(5-Me)]YC[Tle]GK[Ala(4-THP)]DVYC[Trp(5-F)]F[Val(3-OH)][dK](DOTA)-OH; disulfide 3-11), the dissociation constant Kd under setting [2] lay within 10 to 100 nM.
The compound `CC(=O)N[C@@H](CCC(C)C)C(=O)N[C@@H](Cc1ccc(O)cc1)C(=O)N[C@H]1CSSC[C@@H](C(=O)N[C@@H](Cc2c[nH]c3ccc(F)cc23)C(=O)N[C@H](C(=O)N[C@H](C(=O)N[C@H](CCCCNC(=O)CN2CCN(CC(=O)O)CCN(CC(=O)O)CCN(CC(=O)O)CC2)C(=O)O)[C@@H](C)O)C(C)(C)C)NC(=O)[C@H](Cc2ccc(O)cc2)NC(=O)[C@H](C(C)C)NC(=O)[C@H](CC(=O)O)NC(=O)[C@H](CC2CCOCC2)NC(=O)[C@H](CCCCN)NC(=O)CNC(=O)[C@H](C(C)(C)C)NC1=O` [compound 335, Ac-hLeu-Y-C-Tbg-G-K-ThpA-D-V-Y-C-5FW-Tbg-Thr-dLys(DOTA)-COOH] (Ac-[hLeu]YC[Tle]GK[Ala(4-THP)]DVYC[Trp(5-F)][Tle]T[dK](DOTA)-OH; disulfide 3-11) yielded a Kd under setting [1] of 1 to 10 nM.
Same read-out and setting: to `CC(=O)N[C@@H](CCC(C)C)C(=O)N[C@@H](Cc1ccc(O)cc1)C(=O)N[C@H]1CSSC[C@@H](C(=O)N[C@@H](Cc2c[nH]c3ccccc23)C(=O)N[C@@H](Cc2ccccc2)C(=O)N[C@H](C(=O)N[C@H](CCCCNC(=O)CN2CCN(CC(=O)O)CCN(CC(=O)O)CCN(CC(=O)O)CC2)C(N)=O)[C@@H](C)O)NC(=O)[C@H](Cc2ccc(O)cc2)NC(=O)[C@H](C(C)C)NC(=O)[C@H](CC(=O)O)NC(=O)[C@H](Cc2ccc(C(=O)O)cc2)NC(=O)[C@H](CCCCN)NC(=O)CN(C)C(=O)[C@H](C(C)(C)C)NC1=O` [compound 140, Ac-hLeu-Y-C-Tbg-Sar-K-4COOHPhe-D-V-Y-C-W-F-Thr-dLys(DOTA)-CONH2] (Ac-[hLeu]YC[Tle][Sar]K[Phe(4-COOH)]DVYCWFT[dK](DOTA)-NH2; disulfide 3-11) belongs 1 to 10 nM; to `CC(=O)N[C@@H](CCC(C)C)C(=O)N[C@@H](Cc1ccc(O)cc1)C(=O)N[C@H]1CSSC[C@@H](C(=O)N[C@@H](Cc2c[nH]c3ccc(F)cc23)C(=O)N[C@@H](Cc2ccccc2)C(=O)N2CCC[C@H]2C(=O)O)NC(=O)[C@H](Cc2ccc(O)cc2)NC(=O)[C@H](C(C)C)NC(=O)[C@H](CC(=O)O)NC(=O)[C@H](Cc2cccc(CNC(=O)CN3CCN(CC(=O)O)CCN(CC(=O)O)CCN(CC(=O)O)CC3)c2)NC(=O)[C@H](CCCCN)NC(=O)CNC(=O)[C@H](C(C)C)NC1=O` [compound 262, Ac-hLeu-Y-C-V-G-K-MAF(DOTA)-D-V-Y-C-5FW-F-Pro-COOH] (Ac-[hLeu]YCVGK[Phe(3-CH2NH2)](DOTA)DVYC[Trp(5-F)]FP-OH; disulfide 3-11), 10 to 100 nM.
`CC(=O)N[C@@H](CCC(C)C)C(=O)N[C@@H](Cc1ccc(O)cc1)C(=O)N[C@H]1CSSC[C@@H](C(=O)N[C@@H](Cc2c[nH]c3ccc(F)cc23)C(=O)N[C@H](C(=O)N[C@H](C(=O)NCCC(=O)O)C(C)(C)O)[C@@H](C)c2ccccc2)NC(=O)[C@H](Cc2ccc(O)cc2)NC(=O)[C@H](C(C)C)NC(=O)[C@H](CC(=O)O)NC(=O)[C@H](CC2CCN(C(=O)CCOCCOCCOCCOCCNC(=O)CN3CCN(CC(=O)O)CCN(CC(=O)O)CCN(CC(=O)O)CC3)CC2)NC(=O)[C@H](CC2CCNCC2)NC(=O)CNC(=O)[C@H](C(C)(C)C)NC1=O` [compound 511, Ac-hLeu-Y-C-Tbg-G-PipAla-Pip(PEG4-DOTA)Ala-D-V-Y-C-5FW-[(2S, 3S)beta-Me-Phe]-hydroxyVal-betaAla-COOH] (Ac-[hLeu]YC[Tle]G[Ala(piperidin-4-yl)][Ala(piperidin-4-yl)]([PEG4-DOTA])DVYC[Trp(5-F)][X1][Val(3-OH)][βAla]-OH; disulfide 3-11) showed a Kd under setting [2] below 1 nM.
`CCCC[C@H](NC(C)=O)C(=O)N[C@@H](Cc1ccc(O)cc1)C(=O)N[C@H]1CSSC[C@@H](C(=O)N[C@@H](Cc2c[nH]c3ccccc23)C(=O)N[C@@H](Cc2ccccc2)C(=O)N[C@@H](CCN)C(=O)N[C@H](CCCCNC(=O)CN2CCN(CC(=O)O)CCN(CC(=O)O)CCN(CC(=O)O)CC2)C(N)=O)NC(=O)[C@H](Cc2ccc(O)cc2)NC(=O)[C@H](C(C)C)NC(=O)[C@H](CC(=O)O)NC(=O)[C@H](Cc2ccc(O)cc2)NC(=O)[C@H](CCCCN)NC(=O)CNC(=O)[C@H](C(C)C)NC1=O` [compound 131, Ac-Nle-Y-C-V-G-K-Y-D-V-Y-C-W-F-Dab-dLys(DOTA)-CONH2] (Ac-[Nle]YCVGKYDVYCWF[Dab][dK](DOTA)-NH2; disulfide 3-11) displayed a Kd under setting [1] of 10 to 100 nM.
